The structures appear in SMILES notation.

Data set [1] in a line: Selectivity index, ratio of CC50 for human C8166 cells to EC50 for HIV1 3B. It counts as toxicity, cell-based. As to conditions: read-out: Ratio CC50/EC50.
Data set [2] relates to Human immunodeficiency virus 1. Description: Antiviral activity against HIV1 3B infected in human C8166 cells assessed as inhibition of syncytia formation after 3 days. It counts as functional, organism-based. As to conditions: Human immunodeficiency virus 1, 3B, C8166, 72 h.
For the next data set, the target named is Protease (Human immunodeficiency virus 1, UniProt Q9YQ12). Briefly: Inhibition of HIV1 protease using Arg-Glu(EDANS)-Ser-Gln-Asn-Tyr-Pro-Ile-Val-Gln-Lys(DABCYL)- Arg as substrate for 20 to 30 mins by FRET analysis.
Data set [3] in a line: Cytostatic activity against human C8166 cells by MTT assay. It is filed as cell-based. In general terms: Tetrazolium assays rely on reduction of a dye to a coloured formazan, in cell work by metabolically active cells.
Data set [4] has as its system Human immunodeficiency virus 1. Description: Ratio of amprenavir EC50 to compound EC50 for HIV1 3B. It counts as functional.
In data set [5] the target is Protease (Human immunodeficiency virus 1) (UniProt Q9YQ12). Briefly: Ratio of amprenavir Ki to compound Ki for HIV1 protease.
Sequence of Protease (Human immunodeficiency virus 1) (Q9YQ12 as listed by the source): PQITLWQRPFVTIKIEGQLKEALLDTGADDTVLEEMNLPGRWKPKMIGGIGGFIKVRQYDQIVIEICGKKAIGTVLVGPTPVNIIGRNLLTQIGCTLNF

Sequence of Protease (Q9YQ12 whole entry): as the sequence (Q9YQ12 as listed by the source) above

For `COc1ccc(S(=O)(=O)N(CC(C)C)C[C@@H](O)[C@H](Cc2ccc(-c3cccc(O)c3)cc2)NC(=O)O[C@H]2CCOC2)cc1`, in data set [1], the selectivity ratio worked out at 9540. For the same molecule, the EC50 (in general, the concentration that produces a half-maximal response) in data set [2] worked out at 4.3 nM. Further, at Protease, the affinity, expressed as Ki, was 4.3 nM. Moreover, half-maximal cytotoxicity in data set [3] (CC50) was put at 41000 nM.

Turning to `CC(C)CN(C[C@@H](O)[C@H](Cc1ccc(-c2ccncc2)cc1)NC(=O)O[C@H]1CCOC1)S(=O)(=O)c1ccc(N)cc1`, in data set [1], the selectivity ratio was found to be 2.6e+06. Also, the EC50 in data set [2] came to 0.1 nM. Besides, in data set [4], the “Ratio EC50” value is 30. In addition, the Ki (commonly a dissociation constant, usually derived from enzyme kinetics or from competition with a known ligand) at Protease was 0.086 nM. Moreover, in data set [3], the half-maximal cytotoxic concentration (CC50) (as a rule, the concentration giving 50% cytotoxicity) is 260000 nM.

For the molecule `COc1ccc(S(=O)(=O)N(CC(C)C)C[C@@H](O)[C@H](Cc2ccc(-c3ccc(F)cc3)cc2)NC(=O)O[C@H]2CCOC2)cc1`, the selectivity ratio in data set [1] is 35200. For the same molecule, the EC50 in data set [2] stood at 3.98 nM. Affinity at Protease was put at a Ki of 5.8 nM. Also, half-maximal cytotoxicity in data set [3] (CC50) was put at 140000 nM.

In the case of `COc1ccc(S(=O)(=O)N(CC(C)C)C[C@@H](O)[C@H](Cc2ccc(-c3ccc(Cl)cc3)cc2)NC(=O)O[C@H]2CCOC2)cc1`, the selectivity ratio in data set [1] was found to be 53600. The 50% effective concentration (EC50) in data set [2] came out at 4.29 nM. Moreover, the Ki on Protease was determined as 6.4 nM. In addition, the half-maximal cytotoxic concentration (CC50) in data set [3] worked out at 230000 nM.

Regarding `CC(C)CN(C[C@@H](O)[C@H](Cc1ccc(-c2ccccc2)cc1)NC(=O)O[C@H]1CCOC1)S(=O)(=O)c1ccc(N)cc1`, the selectivity ratio in data set [1] is 14200. Besides, in data set [2], the 50% effective concentration (EC50) is 2.25 nM. At Protease, this molecule displayed a Ki of 1.98 nM. Further, half-maximal cytotoxicity in data set [3] (CC50) was put at 32000 nM.

Consider `COc1ccc(S(=O)(=O)N(CC(C)C)C[C@@H](O)[C@H](Cc2ccc(-c3ccc(SC)cc3)cc2)NC(=O)O[C@H]2CCOC2)cc1`, for which the selectivity ratio in data set [1] is 34800. For the same molecule, in data set [2], the EC50 was determined as 6.89 nM. This molecule gave a Ki at Protease of 7.4 nM. Also, the half-maximal cytotoxic concentration (CC50) in data set [3] came to 240000 nM.

On to `COc1ccc(S(=O)(=O)N(CC(C)C)C[C@@H](O)[C@H](Cc2ccc(-c3ccsc3)cc2)NC(=O)O[C@H]2CCOC2)cc1`, for which the selectivity ratio in data set [1] was determined as 35700. Further, in data set [2], the half-maximal effective concentration (EC50) was 4.48 nM. For the same molecule, the affinity on Protease, expressed as Ki, was 3.5 nM. The same molecule gave a half-maximal cytotoxic concentration (CC50) in data set [3] of 160000 nM.

For `COc1ccc(S(=O)(=O)N(CC(C)C)C[C@@H](O)[C@H](Cc2ccc(-c3cccnc3)cc2)NC(=O)O[C@H]2CCOC2)cc1`, the selectivity ratio in data set [1] was found to be 68200. Besides, the EC50 in data set [2] worked out at 3.08 nM. Moreover, affinity on Protease was put at a Ki of 1.6 nM. Further, in data set [3], the CC50 amounted to 210000 nM.

For `COc1ccc(S(=O)(=O)N(CC(C)C)C[C@@H](O)[C@H](Cc2ccc(-c3ccc(OC(F)(F)F)cc3)cc2)NC(=O)O[C@H]2CCOC2)cc1`, in data set [1], the selectivity ratio came out at 28100. Moreover, the half-maximal effective concentration (EC50) in data set [2] is 6.04 nM. The molecule also registered an inhibition constant Ki at Protease of 5.2 nM. The molecule also yielded a 50% cytotoxic concentration (CC50) in data set [3] of 170000 nM.

With `CC(C)CN(C[C@@H](O)[C@H](Cc1ccccc1)NC(=O)O[C@H]1CCOC1)S(=O)(=O)c1ccc(N)cc1` [AMPRENAVIR], the selectivity ratio in data set [1] came to 78500. Besides, the EC50 in data set [2] was 2.93 nM. Also, the affinity at Protease, expressed as Ki, was 0.84 nM. The molecule also displayed a CC50 in data set [3] of 230000 nM.

Turning to `COc1ccc(S(=O)(=O)N(CC(C)C)C[C@@H](O)[C@H](Cc2ccc(-c3ccc(OC)c(C)c3)cc2)NC(=O)O[C@H]2CCOC2)cc1`, the selectivity ratio in data set [1] is 46800. Also, the EC50 in data set [2] was 3.63 nM. This molecule yielded a Ki on Protease of 1.8 nM. In data set [3], this molecule came in with a cytotoxic concentration (CC50) of 170000 nM.

Turning to `COc1ccc(S(=O)(=O)N(CC(C)C)C[C@@H](O)[C@H](Cc2ccc(-c3ccc(C(C)=O)cc3)cc2)NC(=O)O[C@H]2CCOC2)cc1`, the selectivity ratio in data set [1] was found to be 90500. Further, the EC50 in data set [2] stood at 2.32 nM. For the same molecule, on Protease, the affinity corresponds to a Ki of 5.8 nM. Moreover, in data set [3], it took 210000 nM to reach half-maximal cytotoxicity (CC50).

In the case of `COc1ccc(S(=O)(=O)N(CC(C)C)C[C@@H](O)[C@H](Cc2ccc(-c3ccncc3)cc2)NC(=O)O[C@H]2CCOC2)cc1`, the selectivity ratio in data set [1] was found to be 97000. In data set [2], the EC50 came out at 2.68 nM. Besides, the affinity at Protease, expressed as Ki, was 3.8 nM. The molecule also gave a CC50 in data set [3] of 260000 nM.

Regarding `COc1ccc(S(=O)(=O)N(CC(C)C)C[C@@H](O)[C@H](Cc2ccc(-c3cccc(C#N)c3)cc2)NC(=O)O[C@H]2CCOC2)cc1`, in data set [1], the selectivity ratio stood at 34800. The EC50 in data set [2] amounted to 9.2 nM. This molecule also showed a Ki at Protease of 8.1 nM. The 50% cytotoxic concentration (CC50) in data set [3] was 320000 nM.

With `COc1ccc(S(=O)(=O)N(CC(C)C)C[C@@H](O)[C@H](Cc2ccc(-c3ccc(C(=O)O)cc3)cc2)NC(=O)O[C@H]2CCOC2)cc1`, the selectivity ratio in data set [1] is 25300. Besides, the EC50 in data set [2] was determined as 5.53 nM. Also, the Ki on Protease came out at 1.9 nM. The CC50 in data set [3] is 140000 nM.

For `COC(=O)c1cccc(-c2ccc(C[C@H](NC(=O)O[C@H]3CCOC3)[C@H](O)CN(CC(C)C)S(=O)(=O)c3ccc(OC)cc3)cc2)c1`, the selectivity ratio in data set [1] was determined as 54900. The EC50 in data set [2] is 3.46 nM. Besides, the inhibition constant (Ki) on Protease was found to be 1.6 nM. Moreover, half-maximal cytotoxicity in data set [3] (CC50) was put at 190000 nM.

For `CC(C)CN(C[C@@H](O)[C@H](Cc1ccc(-c2cccnc2)cc1)NC(=O)O[C@H]1CCOC1)S(=O)(=O)c1ccc(N)cc1`, in data set [1], the selectivity ratio amounted to 2e+06. Besides, the EC50 in data set [2] worked out at 0.1 nM. Besides, the “Ratio EC50” value in data set [4] is 30. Further, the Ratio Ki in data set [5] stood at 2. This molecule also gave a Ki at Protease of 0.33 nM. The molecule further registered a CC50 in data set [3] of 200000 nM.

(Values after ChEMBL document CHEMBL1955858, “Synthesis and biological evaluation of novel amprenavir-based P1-substituted bi-aryl derivatives as ultra-potent HIV-1 protease inhibitors” (Bioorg Med Chem Lett, 2012).)
